Test results: patent publication US5591714A, “Derivatives of A82846” (priority 1994, dated 1997)
≈ marks a conversion by molar mass, not a printed value.

Experiments:
Staphylococcus aureus = test: In vivo activity, experimentally infected mice (ED50); details: Staphylococcus aureus infection; doses administered subcutaneously to mice 1 and 4 hours postinfection
[1] = system: Staphylococcus aureus X400; test: MIC, standard agar-dilution assay; format: cell-based
Experimental: (§1) The formula I compounds have in vitro and in vivo activity against Gram-positive pathogenic bacteria. The MIC's were determined using a standard agar-dilution assays.

[2] = system: Staphylococcus epidermidis 222; test: MIC, standard agar-dilution assay; format: cell-based
Experimental: as §1

[3] = system: Klebsiella pneumoniae X68; test: MIC, standard agar-dilution assay; format: cell-based
Experimental: as §1

[4] = system: Klebsiella pneumoniae KAE; test: MIC, standard agar-dilution assay; format: cell-based
Experimental: as §1

[5] = system: Staphylococcus aureus NRRL X1.1; test: MIC, standard agar-dilution assay; format: cell-based
Experimental: as §1

[6] = system: Staphylococcus aureus V41; test: MIC, standard agar-dilution assay; format: cell-based
Experimental: as §1

[7] = system: Streptococcus pyogenes C203; test: MIC, standard agar-dilution assay; format: cell-based
Experimental: as §1

[8] = system: Klebsiella pneumoniae X26; test: MIC, standard agar-dilution assay; format: cell-based
Experimental: as §1

[9] = system: Haemophilus influenzae C.L.; test: MIC, standard agar-dilution assay; format: cell-based
Experimental: as §1

[10] = system: Staphylococcus epidermidis EPI270; test: MIC, standard agar-dilution assay; format: cell-based
Experimental: as §1

[11] = system: Haemophilus influenzae 76; test: MIC, standard agar-dilution assay; format: cell-based
Experimental: as §1

Streptococcus pneumoniae = test: In vivo activity, experimentally infected mice (ED50); details: Streptococcus pneumoniae infection; doses administered subcutaneously to mice 1 and 4 hours postinfection
Streptococcus pyogenes = test: as above; details: Streptococcus pyogenes infection; doses administered subcutaneously to mice 1 and 4 hours postinfection
[12] = system: Staphylococcus aureus S13E; format: cell-based
Experimental: as §1

[13] = system: Streptococcus pneumoniae Park 1; format: cell-based
Experimental: as §1

[14] = system: Enterococcus faecalis 2041; test: MIC, standard agar-dilution assay; format: cell-based
Experimental: as §1
^c Formerly Streptococcus faecalis 2041

Enterococcus faecium X66 = test: MIC, standard agar-dilution assay; format: cell-based
Experimental: as §1
^b Formerly Streptococcus faecium X66

Escherichia coli N10 = test: MIC, standard agar-dilution assay; format: cell-based
Experimental: as §1

Escherichia coli EC14 = test: MIC, standard agar-dilution assay; format: cell-based
Experimental: as §1

Escherichia coli TEM = test: MIC, standard agar-dilution assay; format: cell-based
Experimental: as §1

Structure (SMILES)	ED50 (Staphylococcus aureus)	MIC [1]	MIC [2]	MIC [3]	MIC [4]	MIC [5]	MIC [6]	MIC [7]	MIC [8]	MIC [9]	MIC [10]	MIC [11]	ED50 (Streptococcus pneumoniae)	ED50 (Streptococcus pyogenes)	MIC [12]	MIC [13]	MIC [14]	MIC (Enterococcus faecium X66)	MIC (Escherichia coli N10)	MIC (Escherichia coli EC14)	further results
CN[C@H](CC(C)C)C(=O)N[C@H]1C(=O)N[C@@H](CC(N)=O)C(=O)N[C@H]2C(=O)N[C@H]3C(=O)N[C@H](C(=O)N[C@H](C(=O)O)c4cc(O)cc(O)c4-c4cc3ccc4O)[C@H](O[C@H]3C[C@](C)(NCc4ccccc4)[C@@H](O)[C@H](C)O3)c3ccc(cc3)Oc3cc2cc(c3O[C@@H]2O[C@H](CO)[C@@H](O)[C@H](O)[C@H]2O[C@H]2C[C@](C)(NCc3ccccc3)[C@@H](O)[C@H](C)O2)Oc2ccc(cc2Cl)[C@H]1O [Compound 11]	0.58 mg/kg/2	.5 µg/mL (≈ 0.288 µM)	.5 µg/mL (≈ 0.288 µM)	> 128 µg/mL	> 128 µg/mL	.25 µg/mL (≈ 0.144 µM)	.5 µg/mL (≈ 0.288 µM)	.25 µg/mL (≈ 0.144 µM)	> 128 µg/mL	> 128 µg/mL	1 µg/mL (≈ 0.575 µM)	> 128 µg/mL	0.37 mg/kg/2	0.34 mg/kg/2	.25 µg/mL (≈ 0.144 µM)	.25 µg/mL (≈ 0.144 µM)	1 µg/mL (≈ 0.575 µM)	.25 µg/mL (≈ 0.144 µM)			
CC(C)C[C@H](C(=O)N[C@H]1C(=O)N[C@@H](CC(N)=O)C(=O)N[C@H]2C(=O)N[C@H]3C(=O)N[C@H](C(=O)N[C@H](C(=O)O)c4cc(O)cc(O)c4-c4cc3ccc4O)[C@H](O[C@H]3C[C@](C)(NCc4ccccc4)[C@@H](O)[C@H](C)O3)c3ccc(cc3)Oc3cc2cc(c3O[C@@H]2O[C@H](CO)[C@@H](O)[C@H](O)[C@H]2O[C@H]2C[C@](C)(NCc3ccccc3)[C@@H](O)[C@H](C)O2)Oc2ccc(cc2Cl)[C@H]1O)N(C)Cc1ccccc1 [Compound 12]		8 µg/mL (≈ 4.38 µM)	8 µg/mL (≈ 4.38 µM)	> 128 µg/mL	> 128 µg/mL	8 µg/mL (≈ 4.38 µM)	8 µg/mL (≈ 4.38 µM)	2 µg/mL (≈ 1.09 µM)	> 128 µg/mL	> 128 µg/mL	8 µg/mL (≈ 4.38 µM)	> 128 µg/mL			4 µg/mL (≈ 2.19 µM)	2 µg/mL (≈ 1.09 µM)	8 µg/mL (≈ 4.38 µM)	4 µg/mL (≈ 2.19 µM)			
CCCCCN(C)[C@H](CC(C)C)C(=O)N[C@H]1C(=O)N[C@@H](CC(N)=O)C(=O)N[C@H]2C(=O)N[C@H]3C(=O)N[C@H](C(=O)N[C@H](C(=O)O)c4cc(O)cc(O)c4-c4cc3ccc4O)[C@H](O[C@H]3C[C@](C)(N)[C@@H](O)[C@H](C)O3)c3ccc(c(Cl)c3)Oc3cc2cc(c3O[C@@H]2O[C@H](CO)[C@@H](O)[C@H](O)[C@H]2O[C@H]2C[C@](C)(N)[C@@H](O)[C@H](C)O2)Oc2ccc(cc2Cl)[C@H]1O [Compound 35]		.5 µg/mL (≈ 0.301 µM)	.5 µg/mL (≈ 0.301 µM)	> 128 µg/mL	> 128 µg/mL	.5 µg/mL (≈ 0.301 µM)	.25 µg/mL (≈ 0.15 µM)	.25 µg/mL (≈ 0.15 µM)	> 128 µg/mL	> 128 µg/mL	1 µg/mL (≈ 0.601 µM)	> 128 µg/mL			.25 µg/mL (≈ 0.15 µM)	.25 µg/mL (≈ 0.15 µM)	.5 µg/mL (≈ 0.301 µM)	.5 µg/mL (≈ 0.301 µM)	> 128 µg/mL	> 128 µg/mL	MIC (Escherichia coli TEM): > 128 µg/mL
CNC(CC(C)C)C(=O)NC1C(=O)NC(CC(N)=O)C(=O)NC2C(=O)NC3C(=O)NC(C(=O)NC(C(=O)O)c4cc(O)cc(O)c4-c4cc3ccc4O)C(OC3CC(C)(NCc4ccc(Cl)cc4)C(O)C(C)O3)c3ccc(c(Cl)c3)Oc3cc2cc(c3OC2OC(CO)C(O)C(O)C2OC2CC(C)(NCc3ccc(Cl)cc3)C(O)C(C)O2)Oc2ccc(cc2Cl)C1O (stereo not drawn) [Compound 61]	1.83 mg/kg/2												0.08 mg/kg/2	0.10 mg/kg/2							
CNC(CC(C)C)C(=O)NC1C(=O)NC(CC(N)=O)C(=O)NC2C(=O)NC3C(=O)NC(C(=O)NC(C(=O)O)c4cc(O)cc(O)c4-c4cc3ccc4O)C(OC3CC(C)(NCc4cccc(Cl)c4)C(O)C(C)O3)c3ccc(c(Cl)c3)Oc3cc2cc(c3OC2OC(CO)C(O)C(O)C2OC2CC(C)(NCc3cccc(Cl)c3)C(O)C(C)O2)Oc2ccc(cc2Cl)C1O (stereo not drawn) [Compound 65]	1.59 mg/kg/2												0.11 mg/kg/2	0.15 mg/kg/2							
CNC(CC(C)C)C(=O)NC1C(=O)NC(CC(N)=O)C(=O)NC2C(=O)NC3C(=O)NC(C(=O)NC(C(=O)O)c4cc(O)cc(O)c4-c4cc3ccc4O)C(OC3CC(C)(NCc4ccc(F)cc4)C(O)C(C)O3)c3ccc(c(Cl)c3)Oc3cc2cc(c3OC2OC(CO)C(O)C(O)C2OC2CC(C)(N)C(O)C(C)O2)Oc2ccc(cc2Cl)C1O (stereo not drawn) [Compound 66]	0.37 mg/kg/2	1 µg/mL (≈ 0.588 µM)	1 µg/mL (≈ 0.588 µM)	> 128 µg/mL	> 128 µg/mL	.5 µg/mL (≈ 0.294 µM)	1 µg/mL (≈ 0.588 µM)	.5 µg/mL (≈ 0.294 µM)	> 128 µg/mL	> 128 µg/mL	2 µg/mL (≈ 1.18 µM)	> 128 µg/mL	0.22 mg/kg/2	0.18 mg/kg/2	1 µg/mL (≈ 0.588 µM)	.25 µg/mL (≈ 0.147 µM)	1 µg/mL (≈ 0.588 µM)	1 µg/mL (≈ 0.588 µM)	> 128 µg/mL	> 128 µg/mL	
CNC(CC(C)C)C(=O)NC1C(=O)NC(CC(N)=O)C(=O)NC2C(=O)NC3C(=O)NC(C(=O)NC(C(=O)O)c4cc(O)cc(O)c4-c4cc3ccc4O)C(OC3CC(C)(N)C(O)C(C)O3)c3ccc(c(Cl)c3)Oc3cc2cc(c3OC2OC(CO)C(O)C(O)C2OC2CC(C)(NCc3ccc(F)cc3)C(O)C(C)O2)Oc2ccc(cc2Cl)C1O (stereo not drawn) [Compound 67]	0.33 mg/kg/2	1 µg/mL (≈ 0.588 µM)	.5 µg/mL (≈ 0.294 µM)	> 128 µg/mL	> 128 µg/mL	.5 µg/mL (≈ 0.294 µM)	1 µg/mL (≈ 0.588 µM)	.25 µg/mL (≈ 0.147 µM)	> 128 µg/mL	> 128 µg/mL	2 µg/mL (≈ 1.18 µM)	> 128 µg/mL	< 0.12 mg/kg/2	< 0.12 mg/kg/2	1 µg/mL (≈ 0.588 µM)	.125 µg/mL (≈ 0.0735 µM)	.5 µg/mL (≈ 0.294 µM)	.5 µg/mL (≈ 0.294 µM)	> 128 µg/mL	> 128 µg/mL	
CNC(CC(C)C)C(=O)NC1C(=O)NC(CC(N)=O)C(=O)NC2C(=O)NC3C(=O)NC(C(=O)NC(C(=O)O)c4cc(O)cc(O)c4-c4cc3ccc4O)C(OC3CC(C)(NCc4ccc(F)cc4)C(O)C(C)O3)c3ccc(c(Cl)c3)Oc3cc2cc(c3OC2OC(CO)C(O)C(O)C2OC2CC(C)(NCc3ccc(F)cc3)C(O)C(C)O2)Oc2ccc(cc2Cl)C1O (stereo not drawn) [Compound 68]	0.80 mg/kg/2												0.12 mg/kg/2	0.09 mg/kg/2							
CCCCCNC1(C)CC(OC2c3ccc(cc3)Oc3cc4cc(c3OC3OC(CO)C(O)C(O)C3O)Oc3ccc(cc3Cl)C(O)C(NC(=O)C(CC(C)C)NC)C(=O)NC(CC(N)=O)C(=O)NC4C(=O)NC3C(=O)NC2C(=O)NC(C(=O)O)c2cc(O)cc(O)c2-c2cc3ccc2O)OC(C)C1O (stereo not drawn) [Compound 71]		4 µg/mL (≈ 2.69 µM)	4 µg/mL (≈ 2.69 µM)	> 128 µg/mL	> 128 µg/mL	2 µg/mL (≈ 1.35 µM)	2 µg/mL (≈ 1.35 µM)	2 µg/mL (≈ 1.35 µM)	> 128 µg/mL	> 128 µg/mL	1 µg/mL (≈ 0.673 µM)	> 128 µg/mL			2 µg/mL (≈ 1.35 µM)	2 µg/mL (≈ 1.35 µM)	8 µg/mL (≈ 5.39 µM)	8 µg/mL (≈ 5.39 µM)	> 128 µg/mL	> 128 µg/mL	MIC (Escherichia coli TEM): > 128 µg/mL
CNC(CC(C)C)C(=O)NC1C(=O)NC(CC(N)=O)C(=O)NC2C(=O)NC3C(=O)NC(C(=O)NC(C(=O)O)c4cc(O)cc(O)c4-c4cc3ccc4O)C(OC3CC(C)(NCc4ccccc4)C(O)C(C)O3)c3ccc(c(Cl)c3)Oc3cc2cc(c3O)Oc2ccc(cc2Cl)C1O (stereo not drawn) [Compound 79]	> 1.0 mg/kg/2	.5 µg/mL (≈ 0.363 µM)	.5 µg/mL (≈ 0.363 µM)	> 128 µg/mL	> 128 µg/mL	.25 µg/mL (≈ 0.182 µM)	.25 µg/mL (≈ 0.182 µM)	.25 µg/mL (≈ 0.182 µM)	> 128 µg/mL	> 128 µg/mL		> 128 µg/mL	0.71 mg/kg/2	0.71 mg/kg/2	.25 µg/mL (≈ 0.182 µM)	.25 µg/mL (≈ 0.182 µM)	1 µg/mL (≈ 0.726 µM)	1 µg/mL (≈ 0.726 µM)	> 128 µg/mL	> 128 µg/mL	MIC (Escherichia coli TEM): > 128 µg/mL
